Test results published in patent US6420388B1, “Osanetant in the treatment of depression and depressive disorders” (Sanofi-Synthelabo, priority 1999, dated 2002).

System: major depressive disorders
Assay: Effect of osanetant on major depressive disorders in patients
Format: in vivo, human
Details: patients 18 to 65 years of age with major depressive disorders; osanetant 200 mg/day for about 6 weeks
Protocol: The effect of osanetant on major depressive disorders has been investigated in patients of between 18 and 65 years of age. The patients were given osanetant (200 mg/day) for a period of about 6 weeks.

## CC(=O)N(C)C1(c2ccccc2)CCN(CCC[C@]2(c3ccc(Cl)c(Cl)c3)CCCN(C(=O)c3ccccc3)C2)CC1 [osanetant, (R)-(+)-N-[(3-(1-benzoyl-3-(3,4-dichlorophenyl)piperidin-3-yl)propyl)-4-phenylpiperidin-4-yl]-N-methyl acetamide]
  scores on the Hamilton scale (improvement in the depressive syndrome): significant reduction
